Test results from patent US20190142832A1, “Marker for Cancer Prognosis and Methods Related Thereto” (National Jewish Health, priority 2007, published 2019).
Where two headings read alike, the source gives them in different places.

Key:
HLMVEC [1] = assay: [3H]-thymidine incorporation proliferation assay in HLMVEC; assay type: cell-based, human; details: serum-starved, varying concentrations, 24 h
Description: Proliferation of HLMVEC was measured using [^3H]-thymidine incorporation. About 20,000 cells were plated in each well of a 24-well plate in endothelial cell complete medium. After 24 h, cells were washed once with HBSS and serum-starved in EBM-2 medium containing 1% FBS, hydrocortisone, ascorbic acid and GA-1000. After 24 h, cells were incubated with [^3H] thymidine (1 μCi/well) in the presence or absence of the adenosine A2A receptor agonist, CGS-21680, at varying concentrations for an additional 24 h. Subsequently, cells were washed twice with ice-cold PBS, precipitated with 0.1 N perchloric acid, and solubilized with 0.01 N NaOH containing 0.1% SDS prior to scintillation counting. Similarly, proliferation was also measured in cells transduced with Ad.A2A or Ad.LacZ at a multiplicity of infection of 10 pfu/cell.

HLMVEC [2] = assay: Matrigel tube formation (branching) assay in HLMVEC; assay type: cell-based, human
Description: Angiogenesis in HLMVEC was assessed using the Matrigel tube formation assay. Growth factor-reduced Matrigel matrix was coated onto 12-well plates and allowed to solidify at 37° C. for 30 min. HLMVEC's were then trypsinized and plated onto the Matrigel in the absence of growth factors or serum and incubated at 37° C. in a CO2 incubator. The A2A receptor agonist, CGS-21680, or the diluent control was included both in the Matrigel matrix and the overlying medium. Four hours after plating of cells, three randomly chosen fields from each well were photographed. Branch points were counted and plotted.

MB114 cells = assay: Tube formation of MB114 cells on collagen gel; assay type: cell-based, murine; details: 5 days
Description: MB114 cells (a microvascular endothelial cell line) were plated on collagen gel in presence of absence of the A2A receptor agonist CGS-21680 at a density of 80000 cells/well using a 24 well plate. After incubation for 5 days, photos from each well were taken randomly.

PI 3-kinase = PI 3-kinase activity in anti-p85 immunoprecipitate and phospho-Akt Western blot, HLMVEC; assay type: cell-based, human; details: 1 μM
Description: HLMVECs were cultured on 100 mm dishes. Cells were serum starved for 24 h before treating with 1 μM of CGS-21680 (Adenosine A2A receptor agonist) or the diluent control. Following treatment, lysates were prepared and −500 μg of protein was incubated with 20 μl of anti-p85-conjugated agarose (200 μg anti p85/200 μl agarose) for 2 h, after which the complex was precipitated. PI3-kinase activity was measured in the immunoprecipitate.

[3] = system: adenosine A2A receptor mRNA; assay: Northern blot of adenosine A2A receptor mRNA in human endothelial cells (HLMVEC, HCAEC); assay type: cell-based
Description: To assess the role of adenosine receptors in hypoxia, primary HLMVEC were exposed to air or hypoxia. For detecting mRNA, twenty-four hours post-transduction or treatment, cells were washed twice with Hank's balanced salt solution (HBSS) and harvested in GITC. RNA was purified using the CsCl method as described earlier (Riddle et al., Am J Physiol Lung Cell Mol Physiol 278, L407 (2000). 15 μg total RNA were resolved on 1% formaldehyde-agarose gels and transferred to nylon membranes. Probes used for northern blot were derived from human A2A cDNA and human A2B cDNA kindly provided by Dr. Marlene Jacobson, Merck Research Labs, West Point, Pa. The VEGF cDNA was obtained from the Harvard Proteomic Institute. The cDNA probes were labeled with [^32P]α-dCTP (ICN, Irvine, Calif.) by random priming and hybridized with the membrane for 18 hrs at 42° C. Membranes were then washed and autoradiographed. For loading controls, membranes were stripped of radioactive probe in a 2% glyceraldehyde solution at 80° C. and rehybridized with an end-labeled 28S rRNA oligonucleotide (Ambion, Austin, Tex.). The intensity of the radiolabeled bands was measured using a PhosphorImager running ImageQuant software (Molecular Dynamics, Sunnyvale, Calif.). The same Northern Blot procedure was used in subsequent examples, unless specifically noted otherwise. Protein expression was detected using standard Western Blot methods described in Ahmad, Free Radic Biol Med. 40(7):1108(2006).

A2A receptor mRNA = A2A receptor mRNA expression in mouse derived endothelial cells SVEC and MB114; assay type: cell-based
Description: Primary human lung microvascular endothelial cells (HLMVEC), primary human coronary artery endothelial cells (HCAEC), primary pulmonary artery endothelial cells (HPAEC) and endothelial cell growth medium were obtained from Cambrex (Walkersville, Md.). Dimethyloxlylglycine (DMOG) was obtained from Frontier Scientific, Inc (Logan, Utah). HLMVEC and HCAEC were cultured in endothelial cell basal medium (EBM-2) supplemented with VEGF, human FGF, human EGF, hydrocortisone, ascorbic acid, insulin-like growth factor-1, GA-1000 (gentamycin/amphotericin-B), 5% fetal bovine serum as per the supplier's protocol. Murine brain microvascular endothelial cells (MB114) and SV-40 transformed mouse endothelial cells (SVEC) were cultured in DMEM supplemented with 10% FBS, penicillin and streptomycin. The same culture conditions were used in subsequent examples, unless specifically noted otherwise.
To assess the role of adenosine receptors in hypoxia, primary HLMVEC were exposed to air or hypoxia. […] The intensity of the radiolabeled bands was measured using a PhosphorImager running ImageQuant software (Molecular Dynamics, Sunnyvale, Calif.). […] Protein expression was detected using standard Western Blot methods described in Ahmad, Free Radic Biol Med. 40(7):1108(2006).

[4] = HLMVEC (donors) and HCAEC, Northern blot

CCNC(=O)[C@H]1O[C@@H](n2cnc3c(N)nc(NCCc4ccc(CCC(=O)O)cc4)nc32)[C@H](O)[C@@H]1O [CGS-21680]
cellular proliferation as assessed by 3[H]thymidine incorporation (HLMVEC [1]): increased cellular proliferation in a dose-dependent manner | cell sprouting / formation of branches relative to control cells (HLMVEC [2]; Matrigel, 4 h): increased cell sprouting resulting in formation of branches | increase in branching compared to the diluent control (HLMVEC [2]; Matrigel-matrix based assay, branch points 4 h after plating): 37% | tube formation (MB114 cells): promotes tube formation in a dose dependent manner | expression of phosphorylated Akt (Western blot) (PI 3-kinase): increases expression of phosphorylated Akt | PI3-kinase activity (phosphorylation of phosphoinositides, PIP3) (PI 3-kinase; serum starved 24 h): increased PI3-kinase activity

[Cl-].[Cl-].[Co+2] [CoCl2]
adenosine A2A receptor steady-state mRNA levels [3]: increases adenosine A2A receptor steady-state mRNA levels

CC(=O)N(O)CCCCCNC(=O)CCC(=O)N(O)CCCCCNC(=O)CCC(=O)N(O)CCCCCN [DFO]
adenosine A2A receptor steady-state mRNA levels [3, 4]: increases adenosine A2A receptor steady-state mRNA levels

COC(=O)CNC(=O)C(=O)OC [DMOG, Dimethyloxlylglycine]
adenosine A2A receptor steady-state mRNA levels [3, 4]: increases adenosine A2A receptor steady-state mRNA levels | expression of A2A receptor mRNA levels (A2A receptor mRNA): neither hypoxia nor HIF stabilization by DMOG altered the expression of A2A receptor mRNA levels
